Source: ChEMBL document CHEMBL5344418, “Recent developments in antimalarial activities of 4-aminoquinoline derivatives” (Eur J Med Chem, 2023)

Assays:
Plasmodium falciparum [1] = test: Antimalarial activity against chloroquine-sensitive Plasmodium falciparum 3D7 assessed as reduction in parasite growth incubated for 36 hrs by Giemsa staining based microscopic analysis; format: functional, organism-based; details: 3D7, 36 h
[2] = Cytotoxicity against African monkey Vero cells assessed as reduction in cell viability incubated for 72 hrs by MTT assay; format: toxicity, cell-based; details: chlorocebus sabaeus
Hemozoin [3] = test: Inhibition of Beta-hematin formation in Plasmodium falciparum 3D7 by spectrophotometric analysis
Hemozoin [4] = test: Inhibition of Beta-hematin formation in Plasmodium falciparum K1 by spectrophotometric analysis
Plasmodium falciparum [5] = test: Antimalarial activity against chloroquine-sensitive Plasmodium falciparum 3D7 assessed as reduction in parasite growth incubated for 72 hrs by SYBR Green staining based fluorescence analysis; format: functional, organism-based; details: 3D7, 72 h
Plasmodium falciparum [6] = test: Antimalarial activity against chloroquine-resistant Plasmodium falciparum K1 assessed as reduction in parasite growth incubated for 72 hrs by SYBR Green staining based fluorescence analysis; format: functional, organism-based; details: K1, 72 h
[7] = Cytotoxicity against African green monkey Vero cells assessed as reduction in cell viability incubated for 72 hrs by MTT assay; format: toxicity, cell-based; details: chlorocebus sabaeus
[8] = Cytotoxicity against African green monkey Vero cells assessed as reduction in cell viability incubated for 24 hrs by fluorescence based analysis; format: toxicity; details: African green monkey (Chlorocebus sabaeus)
Plasmodium falciparum [9] = test: Antiplasmodial activity against chloroquine-sensitive Plasmodium falciparum NF54 by lactate dehydrogenase assay; format: functional, organism-based
[10] = Cytotoxicity against Chinese hamster CHO cells assessed as reduction in cell viability by MTT assay; format: toxicity, cell-based; details: Chinese hamster (Cricetulus griseus)
Plasmodium falciparum [11] = test: Antiplasmodial activity against chloroquine-resistant Plasmodium falciparum W2 assessed as parasitic growth inhibition incubated for 72 hrs by SYBR Green staining based fluorescence analysis; format: functional, organism-based; details: W2, 72 h

Structure (SMILES): O=C(Cn1cc(COc2ccc(Cl)cc2)nn1)NCCCNc1ccnc2cc(Cl)ccc12
- IC50 (Plasmodium falciparum [1]): 90 µM
- CC50 at 72 h [2]: 27.1 µM

Structure (SMILES): COc1ccc(-c2cncn2CCNc2ccnc3cc(Cl)ccc23)cc1
- IC50 (Hemozoin [3]): 5 µM
- IC50 (Hemozoin [4]): 1.78 µM

Structure (SMILES): FC(F)(F)c1ccc(-c2cncn2CCNc2ccnc3cc(Cl)ccc23)cc1
- IC50 (Hemozoin [3]): 0.21 µM
- IC50 (Hemozoin [4]): 0.45 µM

Structure (SMILES): Clc1ccc2c(NCCn3cncc3C3CCCCC3)ccnc2c1
- IC50 (Hemozoin [3]): 0.19 µM
- IC50 (Hemozoin [4]): 0.52 µM

Structure (SMILES): Clc1ccc2c(NCCn3cncc3-c3c[nH]c4ccccc34)ccnc2c1
- IC50 (Hemozoin [3]): 5 µM
- IC50 (Hemozoin [4]): 1.7 µM

Structure (SMILES): CC(C)CC(CN1CCOCC1)N(C)c1ccnc2cc(Cl)ccc12 (stereo not given)
- IC50 (Plasmodium falciparum [5]): 1.16 µM
- IC50 (Plasmodium falciparum [6]): 1.19 µM
- CC50 at 72 h [7]: 50.8 µM

Structure (SMILES): O=C1c2ccc(N3CCCCC3)cc2C(=O)N1CCCCNc1ccnc2cc(Cl)ccc12
- IC50 at 24 h [8]: 27 µM

Structure (SMILES): Clc1ccc2c(NCCn3cncc3-c3ccc4c(c3)OCCO4)ccnc2c1
- IC50 (Hemozoin [3]): 0.52 µM
- IC50 (Hemozoin [4]): 2.4 µM

Structure (SMILES): CN(c1ccnc2cc(Cl)ccc12)C(Cc1ccccc1)CN1CCCCC1 (stereo not given)
- IC50 (Plasmodium falciparum [5]): 0.28 µM
- IC50 (Plasmodium falciparum [6]): 0.49 µM
- CC50 at 72 h [7]: 69.7 µM

Structure (SMILES): COc1ccc(/C=C/C(=O)c2ccc(S(=O)(=O)NCCCNc3cncc4cc(Cl)ccc34)cc2)c(OC)c1OC
- IC50 (Plasmodium falciparum [9]): 0.58 µM
- IC50 [10]: 22.6 µM

Structure (SMILES): O=C(/C=C/c1ccc(Cl)cc1)c1ccc(S(=O)(=O)NCCCNc2cncc3cc(Cl)ccc23)cc1
- IC50 (Plasmodium falciparum [9]): 0.1 µM
- IC50 [10]: 41.2 µM

Structure (SMILES): Cc1ccc(OCc2cn(CC(=O)NCCCNc3ccnc4cc(Cl)ccc34)nn2)cc1
- IC50 (Plasmodium falciparum [1]): 91.9 µM
- CC50 at 72 h [2]: > 208 µM

Structure (SMILES): OC(c1cc(C(F)(F)F)nc2c(C(F)(F)F)cccc12)C1CCCCN1 (stereo not given) [MEFLOQUINE]
- IC50 (Plasmodium falciparum [11]): 0.024 µM

Structure (SMILES): O=C1c2ccc(N3CCOCC3)cc2C(=O)N1CCCCNc1ccnc2cc(Cl)ccc12
- IC50 at 24 h [8]: 26.9 µM

Structure (SMILES): O=C(/C=C/c1ccccc1Br)c1ccc(S(=O)(=O)NCCCNc2cncc3cc(Cl)ccc23)cc1
- IC50 (Plasmodium falciparum [9]): 0.1 µM
- IC50 [10]: 43.2 µM

Structure (SMILES): O=C(/C=C/c1ccc(F)c(F)c1)c1ccc(S(=O)(=O)NCCCNc2cncc3cc(Cl)ccc23)cc1
- IC50 (Plasmodium falciparum [9]): 2.58 µM
- IC50 [10]: > 300 µM

Structure (SMILES): CCN(CC)CC(Cc1ccccc1)N(C)c1ccnc2cc(C(F)(F)F)ccc12 (stereo not given)
- IC50 (Plasmodium falciparum [5]): 1.75 µM

Structure (SMILES): O=C(Cn1cc(-c2ccccc2)nn1)NCCCNc1ccnc2cc(Cl)ccc12
- IC50 (Plasmodium falciparum [1]): 0.137 µM
- CC50 at 72 h [2]: 41.5 µM

Structure (SMILES): Clc1ccc2c(NCCn3cncc3-c3ccc[nH]3)ccnc2c1
- IC50 (Hemozoin [3]): 5 µM
- IC50 (Hemozoin [4]): 1.15 µM

Structure (SMILES): CN(c1ccnc2cc(C(F)(F)F)ccc12)C(Cc1ccccc1)CN1CCOCC1 (stereo not given)
- IC50 (Plasmodium falciparum [5]): 3.89 µM

Structure (SMILES): Oc1ccc(-c2cncn2CCNc2ccnc3cc(Cl)ccc23)cc1
- IC50 (Hemozoin [3]): 3.79 µM
- IC50 (Hemozoin [4]): 5 µM

Structure (SMILES): CN(CCCN1CCOCC1)c1ccnc2cc(C(F)(F)F)ccc12
- IC50 (Plasmodium falciparum [5]): 0.88 µM
- IC50 (Plasmodium falciparum [6]): 0.82 µM
- CC50 at 72 h [7]: 200 µM

Structure (SMILES): Cc1ccc(/C=C/C(=O)c2ccc(S(=O)(=O)NCCCNc3cncc4cc(Cl)ccc34)cc2)cc1
- IC50 (Plasmodium falciparum [9]): 0.37 µM
- IC50 [10]: 25.1 µM

Structure (SMILES): O=C(/C=C/c1ccc(F)cc1)c1ccc(S(=O)(=O)NCCCNc2cncc3cc(Cl)ccc23)cc1
- IC50 (Plasmodium falciparum [9]): 0.28 µM
- IC50 [10]: 14.7 µM

Structure (SMILES): CCN(CC)CC(CC(C)C)N(C)c1ccnc2cc(Cl)ccc12 (stereo not given)
- IC50 (Plasmodium falciparum [5]): 0.23 µM
- IC50 (Plasmodium falciparum [6]): 0.54 µM
- CC50 at 72 h [7]: 60.3 µM

Structure (SMILES): O=C(Cn1cc(COc2ccc(Br)cc2)nn1)NCCCCCCNc1ccnc2cc(Cl)ccc12
- IC50 (Plasmodium falciparum [1]): 0.307 µM
- CC50 at 72 h [2]: 112 µM

Structure (SMILES): CN(CCCN1CCCC1)c1ccnc2cc(C(F)(F)F)ccc12
- IC50 (Plasmodium falciparum [5]): 0.09 µM
- IC50 (Plasmodium falciparum [6]): 0.31 µM
- CC50 at 72 h [7]: 78.2 µM

Structure (SMILES): Cc1ccsc1-c1cncn1CCNc1ccnc2cc(Cl)ccc12
- IC50 (Hemozoin [3]): 5 µM
- IC50 (Hemozoin [4]): 0.46 µM

Structure (SMILES): O=C(Cn1cc(COc2ccc(Cl)cc2)nn1)NCCCCCCNc1ccnc2cc(Cl)ccc12
- IC50 (Plasmodium falciparum [1]): 263 µM
- CC50 at 72 h [2]: 7.41 µM

Structure (SMILES): Clc1ccc2c(NCCn3cncc3-c3cccc4ccccc34)ccnc2c1
- IC50 (Hemozoin [3]): 5 µM
- IC50 (Hemozoin [4]): 0.92 µM

Structure (SMILES): O=C1c2ccc(N3CCN(CCO)CC3)cc2C(=O)N1CCCCNc1ccnc2cc(Cl)ccc12
- IC50 at 24 h [8]: 24.6 µM

Structure (SMILES): Clc1ccc2c(NCCn3cncc3-c3ccc4ccccc4n3)ccnc2c1
- IC50 (Hemozoin [3]): 5 µM
- IC50 (Hemozoin [4]): 1.33 µM

Structure (SMILES): Cc1ccc(OCc2cn(CC(=O)NCCCCNc3ccnc4cc(Cl)ccc34)nn2)cc1
- IC50 (Plasmodium falciparum [1]): 83.5 µM
- CC50 at 72 h [2]: 5.02 µM

Structure (SMILES): O=C1c2cccc(N3CCOCC3)c2C(=O)N1CCCCNc1ccnc2cc(Cl)ccc12
- IC50 at 24 h [8]: 108 µM

Structure (SMILES): CC(C)CC(CN1CCN(C)CC1)N(C)c1ccnc2cc(Cl)ccc12 (stereo not given)
- IC50 (Plasmodium falciparum [5]): 0.06 µM
- IC50 (Plasmodium falciparum [6]): 0.26 µM
- CC50 at 72 h [7]: 36.6 µM

Structure (SMILES): O=C(Cn1cc(COc2ccccc2)nn1)NCCCNc1ccnc2cc(Cl)ccc12
- IC50 (Plasmodium falciparum [1]): 180 µM
- CC50 at 72 h [2]: 40.6 µM

Structure (SMILES): COc1ccc(/C=C/C(=O)c2ccc(S(=O)(=O)NCCNc3cncc4cc(Cl)ccc34)cc2)cc1OC
- IC50 (Plasmodium falciparum [9]): 0.33 µM
- IC50 [10]: 45.1 µM

Structure (SMILES): O=C(/C=C/c1ccc(OC(F)(F)F)cc1)c1ccc(S(=O)(=O)NCCCNc2cncc3cc(Cl)ccc23)cc1
- IC50 (Plasmodium falciparum [9]): 0.51 µM
- IC50 [10]: 44 µM
